According to US11090308B2, “Methods of treating liver disorders or lipid disorders with a THR-beta agonist” (Madrigal Pharmaceuticals, Inc., priority 2016, dated 2021):
pIC50: −log10 of the molar value. Like-named read-outs stand apart in the source and are kept apart here.

Assays:
MRP2 = MRP2 (Homo sapiens, UniProt Q92887); assay: In vitro drug transporter assay, MRP2; assay type: in vitro ADME
OAT3 = target: T1, OAT3 (Homo sapiens, UniProt Q8TCC7); assay: In vitro drug transporter assay, OAT3; assay type: in vitro ADME; settings: read-out: Inhibitor of: OAT3, IC50
T1 sequence (Q8TCC7 1-542): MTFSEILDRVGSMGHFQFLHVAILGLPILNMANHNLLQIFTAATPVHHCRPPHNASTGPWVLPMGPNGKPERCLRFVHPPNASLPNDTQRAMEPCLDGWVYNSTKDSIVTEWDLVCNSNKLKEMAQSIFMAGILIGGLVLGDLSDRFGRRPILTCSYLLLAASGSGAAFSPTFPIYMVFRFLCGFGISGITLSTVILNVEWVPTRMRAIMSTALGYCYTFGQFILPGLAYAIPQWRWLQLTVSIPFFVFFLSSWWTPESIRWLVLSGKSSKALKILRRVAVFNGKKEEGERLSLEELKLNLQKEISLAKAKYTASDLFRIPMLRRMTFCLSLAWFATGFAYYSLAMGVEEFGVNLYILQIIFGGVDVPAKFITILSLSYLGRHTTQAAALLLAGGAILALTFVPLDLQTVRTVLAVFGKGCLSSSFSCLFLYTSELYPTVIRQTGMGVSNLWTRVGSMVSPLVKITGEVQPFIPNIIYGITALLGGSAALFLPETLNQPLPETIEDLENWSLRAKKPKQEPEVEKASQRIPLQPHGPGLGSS

OCT2 = target: T2, OCT2 (Homo sapiens, UniProt O15244); assay: In vitro drug transporter assay, OCT2; assay type: in vitro ADME
T2 sequence (O15244 1-555): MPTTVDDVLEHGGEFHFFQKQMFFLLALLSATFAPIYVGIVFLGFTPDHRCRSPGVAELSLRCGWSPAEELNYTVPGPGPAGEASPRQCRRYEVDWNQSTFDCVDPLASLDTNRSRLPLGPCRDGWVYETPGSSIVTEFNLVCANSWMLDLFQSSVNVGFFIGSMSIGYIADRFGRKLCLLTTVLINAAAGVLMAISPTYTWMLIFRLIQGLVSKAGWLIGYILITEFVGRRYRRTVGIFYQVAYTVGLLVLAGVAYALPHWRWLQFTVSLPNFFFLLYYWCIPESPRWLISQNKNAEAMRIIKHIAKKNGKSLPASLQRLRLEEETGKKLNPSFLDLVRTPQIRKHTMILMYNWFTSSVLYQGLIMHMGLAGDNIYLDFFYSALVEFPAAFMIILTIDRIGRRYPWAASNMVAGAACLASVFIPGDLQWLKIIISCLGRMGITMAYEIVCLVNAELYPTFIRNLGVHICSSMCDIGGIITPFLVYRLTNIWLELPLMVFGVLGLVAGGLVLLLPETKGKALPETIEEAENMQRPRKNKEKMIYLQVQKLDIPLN

[1] = Dog oral PK and bioavailability studies; assay type: in vivo
From the text: (§1) The following studies have been conducted: (a) in vitro drug protein binding, transporter (organic anion transporting polypeptide [OATP], P-glycoprotein [P-gp], breast cancer-related protein [BCRP], and multiple drug resistance protein 1 [MDR1]), and cytochrome P-450 enzyme assays to investigate absorption, distribution, and excretion; (b) in vivo MGL-3196 rat and dog oral PK and bioavailability studies; (c) in vivo ^14C-MGL-3196 rat and dog oral pharmacokinetics, absorption, excretion, and tissue distribution by quantitative whole-body autoradiography (QWBA) studies; and (d) liver disposition of MGL-3196 using an in vitro sandwiched hepatocyte model system (B-CLEAR® technology) in dog (SCDH) and human (SCHH) hepatocytes.
Rat & Dog PK/Bioavailability Studies were also performed.

in vitro = in vitro ADME, all species; settings: plasma
From the text: as §1

CYP3A4 = CYP3A4 (Homo sapiens, UniProt P08684); assay: In vitro Cytochrome P-450 enzyme assay, CYP3A4; assay type: in vitro ADME
From the text: as §1

[2] = Dog liver, bile, plasma distribution; assay type: in vivo; settings: for concentration at 4 h: Beagle, po; for concentration at 4 h / Concentration in Bile: 4 hours after single daily 100 mg/kg oral doses for four days
From the text: Tables 2A-2B show ^14C-MGL-3196 dog ADME study design.

Sequence of MRP2 (Q92887 whole entry, species assumed): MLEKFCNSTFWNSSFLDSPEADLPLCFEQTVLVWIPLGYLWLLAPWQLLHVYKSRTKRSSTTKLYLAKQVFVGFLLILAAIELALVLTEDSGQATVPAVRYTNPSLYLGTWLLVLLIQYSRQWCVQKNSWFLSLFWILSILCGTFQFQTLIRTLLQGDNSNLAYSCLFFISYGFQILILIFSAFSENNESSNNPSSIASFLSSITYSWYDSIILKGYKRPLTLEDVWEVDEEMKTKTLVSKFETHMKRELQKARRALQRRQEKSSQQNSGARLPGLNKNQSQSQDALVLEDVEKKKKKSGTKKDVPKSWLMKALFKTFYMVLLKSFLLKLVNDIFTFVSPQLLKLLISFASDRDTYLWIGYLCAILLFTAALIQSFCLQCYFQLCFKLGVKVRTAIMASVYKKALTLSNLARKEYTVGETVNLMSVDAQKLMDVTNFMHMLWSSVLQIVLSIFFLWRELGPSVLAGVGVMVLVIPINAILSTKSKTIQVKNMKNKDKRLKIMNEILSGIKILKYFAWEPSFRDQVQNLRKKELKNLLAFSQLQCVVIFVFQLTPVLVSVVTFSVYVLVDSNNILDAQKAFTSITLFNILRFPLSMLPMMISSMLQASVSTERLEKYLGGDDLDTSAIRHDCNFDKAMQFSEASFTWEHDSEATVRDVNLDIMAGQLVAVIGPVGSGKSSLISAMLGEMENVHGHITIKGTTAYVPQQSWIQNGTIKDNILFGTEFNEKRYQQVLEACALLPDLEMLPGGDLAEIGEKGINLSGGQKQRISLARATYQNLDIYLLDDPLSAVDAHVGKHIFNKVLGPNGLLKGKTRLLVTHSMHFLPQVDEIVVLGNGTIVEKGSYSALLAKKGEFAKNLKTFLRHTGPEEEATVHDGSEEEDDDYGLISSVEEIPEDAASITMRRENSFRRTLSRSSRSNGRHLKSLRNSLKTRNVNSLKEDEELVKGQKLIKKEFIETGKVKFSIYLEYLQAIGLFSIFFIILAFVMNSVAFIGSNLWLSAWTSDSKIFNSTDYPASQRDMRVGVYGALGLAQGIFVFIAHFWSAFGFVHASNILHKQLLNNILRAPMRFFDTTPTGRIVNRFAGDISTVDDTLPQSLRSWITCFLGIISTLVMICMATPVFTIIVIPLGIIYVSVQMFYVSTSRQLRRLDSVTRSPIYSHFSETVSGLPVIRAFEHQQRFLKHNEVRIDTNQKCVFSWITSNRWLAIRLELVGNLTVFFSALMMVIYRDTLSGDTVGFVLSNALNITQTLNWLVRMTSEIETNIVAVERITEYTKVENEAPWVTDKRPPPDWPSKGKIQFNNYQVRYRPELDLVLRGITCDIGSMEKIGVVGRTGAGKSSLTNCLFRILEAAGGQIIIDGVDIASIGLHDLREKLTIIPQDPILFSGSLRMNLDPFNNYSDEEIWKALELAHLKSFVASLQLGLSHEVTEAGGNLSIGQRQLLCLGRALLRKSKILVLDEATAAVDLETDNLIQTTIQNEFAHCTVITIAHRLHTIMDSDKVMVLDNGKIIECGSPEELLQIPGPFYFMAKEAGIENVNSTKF
Sequence of CYP3A4 (P08684 2-503 limits assumed): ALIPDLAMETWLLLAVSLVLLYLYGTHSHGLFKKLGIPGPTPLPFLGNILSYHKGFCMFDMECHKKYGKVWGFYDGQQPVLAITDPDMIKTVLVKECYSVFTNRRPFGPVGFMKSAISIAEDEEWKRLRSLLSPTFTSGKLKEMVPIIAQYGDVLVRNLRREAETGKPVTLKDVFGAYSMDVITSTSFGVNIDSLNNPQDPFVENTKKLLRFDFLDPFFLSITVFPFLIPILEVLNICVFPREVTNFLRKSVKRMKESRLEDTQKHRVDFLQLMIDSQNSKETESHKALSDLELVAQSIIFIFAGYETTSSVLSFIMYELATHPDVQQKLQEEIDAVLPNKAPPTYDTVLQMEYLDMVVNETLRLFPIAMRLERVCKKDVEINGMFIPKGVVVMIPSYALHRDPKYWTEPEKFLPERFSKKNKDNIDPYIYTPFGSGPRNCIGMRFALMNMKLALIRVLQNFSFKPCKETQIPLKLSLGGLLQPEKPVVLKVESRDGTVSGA

## CC(C)c1cc(Oc2c(Cl)cc(-n3nc(C#N)c(=O)[nH]c3=O)cc2Cl)n[nH]c1=O [MGL-3196, 2-(3,5-dichloro-4-((5-isopropyl-6-oxo-1,6-dihydropyridazin-3-yl)oxy)phenyl)-3,5-dioxo-2,3,4,5-tetrahydro-1,2,4-triazine-6-carbonitrile]
MRP2
  Inhibitor of: MRP2: not an inhibitor
  Substrate for: MRP2: not a substrate
OAT3
  pIC50: 5.35
OCT2
  Inhibitor of: OCT2: not an inhibitor
[1]; dog, plasma, po
  bioavailability: 11 to 135%
[1]; dog, plasma, dogs, oral dosing, read-out: mean elimination half-life
  half-life: 3 to 5.5 h
[1]; dogs, oral dosing
  time of maximum plasma concentrations: 1 to 8 h
In vitro
  fraction unbound: < 0.01
CYP3A4
  Inhibitor of: CYP3A4: CYP3A4 (weak inhibitor)
[2]; dog, hepatic portal vein plasma, 100 mg/kg, Dog 1, read-out: Concentration in Hepatic Portal Vein Plasma
  concentration at 4 h: 18.8 µg/mL
[2]; dog, hepatic portal vein plasma, 100 mg/kg, Dog 2, read-out: Concentration in Hepatic Portal Vein Plasma
  concentration at 4 h: 86.6 µg/mL
[2]; dog, hepatic portal vein plasma, 100 mg/kg, Dog 3, read-out: Concentration in Hepatic Portal Vein Plasma
  concentration at 4 h: 98.6 µg/mL
[2]; dog, hepatic portal vein plasma, 100 mg/kg, Mean, read-out: Concentration in Hepatic Portal Vein Plasma
  concentration at 4 h: 68 µg/mL
[2]; dog, liver, 100 mg/kg, Dog 1, read-out: Concentration in Liver
  concentration at 4 h: 129000 ng/g
[2]; dog, liver, 100 mg/kg, Dog 2, read-out: Concentration in Liver
  concentration at 4 h: 319000 ng/g
[2]; dog, liver, 100 mg/kg, Dog 3, read-out: Concentration in Liver
  concentration at 4 h: 210000 ng/g
[2]; dog, liver, 100 mg/kg, Mean, read-out: Concentration in Liver
  concentration at 4 h: 219000 ng/g
[2]; dog, systemic plasma, 100 mg/kg, Dog 1, read-out: Concentration in Systemic Plasma
  concentration at 4 h: 16.7 µg/mL
[2]; dog, systemic plasma, 100 mg/kg, Dog 2, read-out: Concentration in Systemic Plasma
  concentration at 4 h: 81.5 µg/mL
[2]; dog, systemic plasma, 100 mg/kg, Dog 3, read-out: Concentration in Systemic Plasma
  concentration at 4 h: 115 µg/mL
[2]; dog, systemic plasma, 100 mg/kg, Mean, read-out: Concentration in Systemic Plasma
  concentration at 4 h: 71.1 µg/mL
[2]; Dog 1
  Concentration in Bile: 26,400,000 ng/mL
[2]; Dog 2
  Concentration in Bile: 10,400,000 ng/mL
[2]; Dog 3
  Concentration in Bile: 15,500,000 ng/mL
[2]; Mean
  Concentration in Bile: 17,400,000 ng/mL
[2]; bile versus plasma, oral, 100 mg/kg, dog, 4 h post-dose, read-out: concentration in bile higher than in plasma
  Kp at 4 h: ~250
[2]; dog, 4 h post-dose
  concentration in bile higher than in liver: ~80 ×
[2]; liver versus plasma, oral, dog, 4 h, 100 mg/kg, read-out: liver to plasma ratio
  Kp at 4 h: 3.1
[2]; liver versus plasma, oral, dog, 24 h, 100 mg/kg, read-out: liver to plasma ratio
  Kp at 24 h: 267
